Key:
Vasopressin V2 receptor = Vasopressin V2 receptor (Homo sapiens, UniProt P30518)
Histamine H2 receptor = Histamine H2 receptor (Homo sapiens, UniProt P25021); type: functional, cell-based
[1] = molecular target: T1, 5-hydroxytryptamine receptor 2C (Homo sapiens, UniProt P28335)
T1 sequence (P28335 whole entry): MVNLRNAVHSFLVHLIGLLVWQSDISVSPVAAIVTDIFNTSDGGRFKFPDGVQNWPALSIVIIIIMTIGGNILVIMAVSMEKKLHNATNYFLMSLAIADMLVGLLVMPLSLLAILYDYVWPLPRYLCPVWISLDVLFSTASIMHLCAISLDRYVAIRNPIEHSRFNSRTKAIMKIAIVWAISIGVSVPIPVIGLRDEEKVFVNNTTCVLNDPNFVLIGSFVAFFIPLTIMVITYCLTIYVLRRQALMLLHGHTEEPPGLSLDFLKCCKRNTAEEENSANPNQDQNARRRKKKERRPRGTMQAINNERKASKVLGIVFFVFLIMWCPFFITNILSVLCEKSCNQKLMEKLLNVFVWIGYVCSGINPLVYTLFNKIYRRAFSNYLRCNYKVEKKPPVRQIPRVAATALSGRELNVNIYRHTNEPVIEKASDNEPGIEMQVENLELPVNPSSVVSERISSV

[2] = molecular target: T2, 5-hydroxytryptamine receptor 3A (Homo sapiens, UniProt P46098); type: functional
T2 sequence (P46098 whole entry): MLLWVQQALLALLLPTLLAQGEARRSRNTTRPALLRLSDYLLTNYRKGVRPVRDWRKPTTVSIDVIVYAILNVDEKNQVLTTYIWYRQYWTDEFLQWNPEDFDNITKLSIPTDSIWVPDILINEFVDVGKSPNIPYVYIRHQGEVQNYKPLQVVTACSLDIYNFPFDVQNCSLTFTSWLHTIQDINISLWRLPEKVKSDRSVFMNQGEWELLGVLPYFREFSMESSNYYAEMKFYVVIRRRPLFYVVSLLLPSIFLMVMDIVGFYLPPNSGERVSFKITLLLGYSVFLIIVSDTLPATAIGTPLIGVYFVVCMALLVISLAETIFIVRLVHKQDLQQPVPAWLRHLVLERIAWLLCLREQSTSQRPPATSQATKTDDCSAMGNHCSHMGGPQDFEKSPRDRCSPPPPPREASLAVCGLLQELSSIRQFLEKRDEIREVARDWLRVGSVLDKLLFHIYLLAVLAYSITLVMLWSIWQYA

Glucocorticoid receptor = molecular target: T3, Glucocorticoid receptor (Homo sapiens, UniProt P04150)
T3 sequence (P04150 whole entry): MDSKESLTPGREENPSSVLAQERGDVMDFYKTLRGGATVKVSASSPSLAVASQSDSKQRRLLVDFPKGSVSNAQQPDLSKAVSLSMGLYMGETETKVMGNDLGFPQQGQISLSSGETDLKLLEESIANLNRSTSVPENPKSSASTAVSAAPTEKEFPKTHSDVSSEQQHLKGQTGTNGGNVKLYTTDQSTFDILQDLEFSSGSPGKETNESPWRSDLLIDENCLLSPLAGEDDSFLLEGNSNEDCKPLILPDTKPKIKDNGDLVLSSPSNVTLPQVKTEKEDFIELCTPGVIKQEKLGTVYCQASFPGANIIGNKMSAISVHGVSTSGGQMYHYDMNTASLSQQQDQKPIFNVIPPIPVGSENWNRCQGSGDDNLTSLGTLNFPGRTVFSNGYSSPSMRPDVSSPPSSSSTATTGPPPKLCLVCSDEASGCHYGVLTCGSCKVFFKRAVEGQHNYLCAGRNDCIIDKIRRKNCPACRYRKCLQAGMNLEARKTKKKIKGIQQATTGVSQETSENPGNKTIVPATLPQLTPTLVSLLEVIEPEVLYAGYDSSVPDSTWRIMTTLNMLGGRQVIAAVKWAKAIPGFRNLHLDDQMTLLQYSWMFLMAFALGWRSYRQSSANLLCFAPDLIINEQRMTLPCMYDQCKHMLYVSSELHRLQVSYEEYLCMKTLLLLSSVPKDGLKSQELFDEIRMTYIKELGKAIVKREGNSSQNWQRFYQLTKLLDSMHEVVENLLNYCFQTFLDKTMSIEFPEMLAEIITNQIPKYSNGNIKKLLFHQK

[3] = molecular target: Delta-type opioid receptor (Homo sapiens, UniProt P41143)
Sequence of Delta-type opioid receptor (P41143 whole entry): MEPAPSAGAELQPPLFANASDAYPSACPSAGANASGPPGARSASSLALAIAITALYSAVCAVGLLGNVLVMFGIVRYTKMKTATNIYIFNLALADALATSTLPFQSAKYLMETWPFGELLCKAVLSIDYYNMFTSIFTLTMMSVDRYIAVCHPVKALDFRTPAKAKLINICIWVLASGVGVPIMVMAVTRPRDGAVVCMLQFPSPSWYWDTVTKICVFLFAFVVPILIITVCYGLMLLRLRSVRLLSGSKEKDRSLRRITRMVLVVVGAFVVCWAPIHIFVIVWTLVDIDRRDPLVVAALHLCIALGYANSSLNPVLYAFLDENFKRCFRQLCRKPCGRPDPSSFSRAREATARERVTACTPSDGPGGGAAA

Progesterone receptor = molecular target: T4, Progesterone receptor (Homo sapiens, UniProt P06401); type: functional
T4 sequence (P06401 whole entry): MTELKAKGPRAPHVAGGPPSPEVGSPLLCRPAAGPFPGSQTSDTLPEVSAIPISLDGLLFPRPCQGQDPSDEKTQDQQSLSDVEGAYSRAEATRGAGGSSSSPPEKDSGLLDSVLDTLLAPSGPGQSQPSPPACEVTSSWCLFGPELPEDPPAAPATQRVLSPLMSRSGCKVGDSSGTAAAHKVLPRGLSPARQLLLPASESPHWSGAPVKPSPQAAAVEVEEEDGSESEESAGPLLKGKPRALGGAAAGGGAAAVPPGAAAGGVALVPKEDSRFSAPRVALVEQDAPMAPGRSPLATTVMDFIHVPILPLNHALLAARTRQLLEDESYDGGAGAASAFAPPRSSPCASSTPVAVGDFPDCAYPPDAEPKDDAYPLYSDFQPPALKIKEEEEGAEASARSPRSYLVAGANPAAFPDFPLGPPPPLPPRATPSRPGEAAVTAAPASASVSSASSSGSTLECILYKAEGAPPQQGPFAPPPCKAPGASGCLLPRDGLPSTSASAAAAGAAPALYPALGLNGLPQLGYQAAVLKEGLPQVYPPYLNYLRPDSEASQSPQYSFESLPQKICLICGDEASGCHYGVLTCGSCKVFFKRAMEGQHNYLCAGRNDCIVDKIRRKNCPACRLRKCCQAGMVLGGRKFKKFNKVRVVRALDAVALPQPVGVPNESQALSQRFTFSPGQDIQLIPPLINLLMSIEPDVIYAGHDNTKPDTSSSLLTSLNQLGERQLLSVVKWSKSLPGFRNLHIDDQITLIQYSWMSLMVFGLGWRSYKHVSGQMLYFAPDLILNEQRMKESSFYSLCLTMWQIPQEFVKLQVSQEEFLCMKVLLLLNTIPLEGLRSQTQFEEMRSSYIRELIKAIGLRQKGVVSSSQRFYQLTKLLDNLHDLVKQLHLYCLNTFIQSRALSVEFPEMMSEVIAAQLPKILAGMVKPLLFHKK

[4] = molecular target: cGMP-inhibited 3',5'-cyclic phosphodiesterase 3A (Homo sapiens, UniProt Q14432); type: functional
Sequence of cGMP-inhibited 3',5'-cyclic phosphodiesterase 3A (Q14432 whole entry): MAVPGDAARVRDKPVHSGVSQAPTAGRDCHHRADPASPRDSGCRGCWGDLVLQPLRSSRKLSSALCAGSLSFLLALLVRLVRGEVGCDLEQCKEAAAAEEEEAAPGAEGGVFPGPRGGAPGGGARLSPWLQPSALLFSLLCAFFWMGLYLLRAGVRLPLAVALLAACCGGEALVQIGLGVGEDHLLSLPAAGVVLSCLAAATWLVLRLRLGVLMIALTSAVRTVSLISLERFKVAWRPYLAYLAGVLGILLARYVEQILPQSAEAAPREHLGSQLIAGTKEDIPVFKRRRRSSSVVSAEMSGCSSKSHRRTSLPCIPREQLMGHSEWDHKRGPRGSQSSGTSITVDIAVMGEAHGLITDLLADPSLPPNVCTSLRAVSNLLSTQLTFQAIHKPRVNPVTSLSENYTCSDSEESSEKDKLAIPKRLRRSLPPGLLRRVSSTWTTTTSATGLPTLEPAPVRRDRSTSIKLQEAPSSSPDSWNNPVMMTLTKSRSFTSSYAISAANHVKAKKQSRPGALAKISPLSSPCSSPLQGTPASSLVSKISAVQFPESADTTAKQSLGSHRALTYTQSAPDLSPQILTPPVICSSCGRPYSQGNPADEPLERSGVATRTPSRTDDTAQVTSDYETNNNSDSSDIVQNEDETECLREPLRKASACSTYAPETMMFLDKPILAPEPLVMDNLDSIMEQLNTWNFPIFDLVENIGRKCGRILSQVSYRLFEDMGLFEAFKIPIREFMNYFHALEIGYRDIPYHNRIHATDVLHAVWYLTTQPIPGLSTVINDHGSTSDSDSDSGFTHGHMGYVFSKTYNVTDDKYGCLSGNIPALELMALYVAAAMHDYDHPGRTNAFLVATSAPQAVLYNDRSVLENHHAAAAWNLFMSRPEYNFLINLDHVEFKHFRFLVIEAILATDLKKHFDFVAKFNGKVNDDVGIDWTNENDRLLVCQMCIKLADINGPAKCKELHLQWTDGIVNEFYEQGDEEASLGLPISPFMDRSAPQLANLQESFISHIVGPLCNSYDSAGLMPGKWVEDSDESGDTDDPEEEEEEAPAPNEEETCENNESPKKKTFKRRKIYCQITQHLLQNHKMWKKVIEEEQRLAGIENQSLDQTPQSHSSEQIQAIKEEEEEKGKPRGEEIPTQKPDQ

Measured: AC50
Also: assay procedure not described here.

Sequence of Histamine H2 receptor (P25021 whole entry): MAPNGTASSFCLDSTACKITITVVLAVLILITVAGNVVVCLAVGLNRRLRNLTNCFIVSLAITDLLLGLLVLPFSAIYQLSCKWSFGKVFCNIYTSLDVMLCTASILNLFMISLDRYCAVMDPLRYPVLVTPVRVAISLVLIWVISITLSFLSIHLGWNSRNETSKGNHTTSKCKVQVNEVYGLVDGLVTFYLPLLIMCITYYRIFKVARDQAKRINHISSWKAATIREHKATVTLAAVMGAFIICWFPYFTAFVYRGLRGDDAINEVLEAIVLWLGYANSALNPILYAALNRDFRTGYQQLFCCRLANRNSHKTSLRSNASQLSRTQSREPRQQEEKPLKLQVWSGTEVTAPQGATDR
Sequence of Vasopressin V2 receptor (P30518 whole entry): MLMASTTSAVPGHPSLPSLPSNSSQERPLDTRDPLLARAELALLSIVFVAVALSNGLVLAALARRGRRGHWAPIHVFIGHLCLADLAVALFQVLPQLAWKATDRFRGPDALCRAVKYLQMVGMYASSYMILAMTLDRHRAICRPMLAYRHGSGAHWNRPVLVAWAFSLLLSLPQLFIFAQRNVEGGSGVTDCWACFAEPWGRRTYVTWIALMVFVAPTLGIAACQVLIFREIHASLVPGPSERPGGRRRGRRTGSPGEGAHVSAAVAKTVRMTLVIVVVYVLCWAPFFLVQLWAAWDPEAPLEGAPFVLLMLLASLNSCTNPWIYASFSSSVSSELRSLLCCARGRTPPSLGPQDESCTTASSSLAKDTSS

C[N+]1(C)CCC(=C(c2ccccc2)c2ccccc2)CC1
6.1 µM: [2]
> 10 µM: Histamine H2 receptor | Glucocorticoid receptor | Progesterone receptor
> 30 µM: all other assays above

C[N+](C)(C)CCOP(=O)([O-])OC[C@H](O)CO
> 30 µM: all assays above

CN(C)Cc1nnc2n1-c1ccc(Cl)cc1C(c1ccccc1)=NC2 [ADINAZOLAM]
> 10 µM: Vasopressin V2 receptor | Histamine H2 receptor | Glucocorticoid receptor | Progesterone receptor
> 30 µM: all other assays above

CN(C)C/C=C/C(=O)Nc1cc2c(Nc3ccc(F)c(Cl)c3)ncnc2cc1O[C@H]1CCOC1 [AFATINIB]
> 30 µM: all assays above

Cc1ccccc1-n1c(CF)nc2ccc(N)cc2c1=O [AFLOQUALONE]
not listed: Glucocorticoid receptor
> 30 µM: all other assays above

CCC1(c2ccc(N)cc2)CCC(=O)NC1=O (stereo not given) [AMINOGLUTETHIMIDE]
10 µM: [4]
> 30 µM: all other assays above

CC1=C(C(=O)OC(C)C)C(c2cccc([N+](=O)[O-])c2)C(C(=O)OC2CN(C(c3ccccc3)c3ccccc3)C2)=C(N)N1 (stereo not given) [AZELNIDIPINE]
> 3 µM: Progesterone receptor
> 30 µM: all other assays above

O=C(/C=C/c1cccc(S(=O)(=O)Nc2ccccc2)c1)NO [BELINOSTAT]
not listed: Histamine H2 receptor | Progesterone receptor
> 30 µM: all other assays above

CC(Cc1cccc(C(F)(F)F)c1)NCCOC(=O)c1ccccc1 (stereo not given) [BENFLUOREX]
3.5 µM: [1]
not listed: [2] | [4]
> 30 µM: all other assays above

O=C(O)COCCN1CCN(C(c2ccccc2)c2ccc(Cl)cc2)CC1 (stereo not given) [CETIRIZINE]
> 30 µM: Vasopressin V2 receptor | [1] | [2] | [3] | [4]

NC[C@H]1CC[C@H](C(=O)Oc2ccc(CCC(=O)O)cc2)CC1 [CETRAXATE]
> 30 µM: Histamine H2 receptor | [1] | [2] | [3] | [4]

CC(=O)O[C@]1(C(C)=O)CC[C@H]2[C@@H]3C=C(Cl)C4=CC(=O)[C@@H]5C[C@@H]5[C@]4(C)[C@H]3CC[C@@]21C [CYPROTERONE ACETATE]
> 30 µM: Vasopressin V2 receptor | [1] | [2] | [3] | [4]

C[C@@H]1C[C@H]2[C@@H]3C[C@H](F)C4=CC(=O)C=C[C@]4(C)[C@@]3(F)[C@@H](O)C[C@]2(C)[C@@]1(OC(=O)c1ccco1)C(=O)SCF [FLUTICASONE FUROATE]
> 10 µM: Vasopressin V2 receptor | Histamine H2 receptor
> 30 µM: [1] | [2] | [3] | [4]

CN(C)CCCN1c2ccccc2CCc2ccccc21 [IMIPRAMINE]
> 30 µM: Vasopressin V2 receptor | Glucocorticoid receptor
0.13 µM: [1]
not listed: Progesterone receptor
> 10 µM: all other assays above

CCC[C@@H]1C[C@@H](C(=O)N[C@@H]([C@H]2O[C@H](SC)[C@H](O)[C@@H](O)[C@H]2O)[C@@H](C)O)N(C)C1 [LINCOMYCIN]
> 10 µM: Vasopressin V2 receptor | Histamine H2 receptor | Glucocorticoid receptor
not listed: Progesterone receptor
> 30 µM: all other assays above

COC(=O)C1=C(C)NC(C)=C(C(=O)OCCN2CCN(C(c3ccccc3)c3ccccc3)CC2)C1c1cccc([N+](=O)[O-])c1 (stereo not given) [MANIDIPINE 6300]
not listed: Progesterone receptor
> 30 µM: all other assays above

CN(Cc1cnc2nc(N)nc(N)c2n1)c1ccc(C(=O)N[C@@H](CCC(=O)O)C(=O)O)cc1 [METHOTREXATE]
> 10 µM: Histamine H2 receptor
not listed: Glucocorticoid receptor | Progesterone receptor
> 30 µM: all other assays above

CC(C)c1cccc(C(C)C)c1O [PROPOFOL]
> 30 µM: [1] | [2] | [3] | Progesterone receptor | [4]

CN[C@@H](C)[C@@H](O)c1ccccc1 [PSEUDOEPHEDRINE]
> 10 µM: Histamine H2 receptor
not listed: Progesterone receptor
> 30 µM: all other assays above

C[C@]12CCC(=O)C[C@@H]1CC[C@@H]1[C@@H]2CC[C@]2(C)[C@@H](O)CC[C@@H]12 [STANOLONE]
not listed: Glucocorticoid receptor | Progesterone receptor
> 30 µM: all other assays above

C[C@]12C=CC(=O)C=C1CC[C@@H]1[C@@H]2CC[C@]2(C)OC(=O)CC[C@@H]12 [TESTOLACTONE]
> 10 µM: Vasopressin V2 receptor | Histamine H2 receptor | Progesterone receptor
not listed: Glucocorticoid receptor
> 30 µM: all other assays above
